Where “and” joins values, the source holds several entries; their conditions need not be identical. Equal entries are not always repeated.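 Assay format: 96-well plates, 48-hour exposure. Here, GI50 denotes the concentration required for 50% inhibition of growth. TGI: total growth inhibition.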
These compounds were tested on MCF7 breast (assay: DTP human tumour cell line panel, 48 h).
With `CN(C)C(=S)SSC(=S)N(C)C` the GI50 was 0.478 µM and the TGI was 22.7 µM and 39.3 µM and > 93.5 µM.
`CCCCCCCCCCNC(=O)CI` gave a GI50 of 1.97 µM and a TGI of 4.59 µM.
`CCCC/C(=C\C1=C(C)C(=O)C(OC)=C(OC)C1=O)C(=O)O` was tested, and the GI50 was over 100 µM and the TGI was over 100 µM.
With `Cc1cc(N/N=C/c2ccccn2)nc2ccccc12` the GI50 was 0.316 µM and the TGI was 8.94 µM.
`Cn1c(=O)c2c(nc(C(=N)SCC(=O)O)n2C)n(C)c1=O` was tested, and the TGI was over 100 µM.
For `COc1ccc(C(CC(=O)c2ccc3c(c2)OCO3)c2c(O)c3ccccc3oc2=O)cc1OC` (stereo not drawn), the TGI was over 100 µM.
Work on `COc1ccc(-c2nn(-c3cccc(Cl)c3)cc2-c2cc(-c3ccccc3)[nH]c(=O)c2C#N)cc1` yielded a GI50 of 9.02 µM and a TGI of over 50 µM.
Compound `Nc1cc(Br)c(-c2nnc(CCC(=O)c3nc4ccccc4[nH]3)o2)c(Br)c1` has a GI50 of 3.06 µM and a TGI of over 100 µM.
`CC(C)(C)[Si](C)(C)OC1[C@@H](CNC(=O)NC(=O)CCl)O[C@@H](n2cnc3c(N)ncnc32)[C@H]1O[Si](C)(C)C(C)(C)C` (stereo partly drawn) was tested, and the GI50 was 0.724 µM and the TGI was 1.51 µM.
In the case of `COc1ccc(/C(C)=C(\c2ccc(OCCN3CCCCCC3)cc2)c2ccc(OC(=O)C3CCCCC3)cc2)cc1`, the GI50 is reported as 0.015 µM and the TGI is reported as 2.88 µM.

These compounds were tested on MOLT-4 leukemia (assay: DTP human tumour cell line panel, 48 h).
`CN(C)C(=S)SSC(=S)N(C)C` was tested, and the TGI was 75.1 µM and 37.5 µM and 23.8 µM.
With `CCCCCCCCCCNC(=O)CI` the GI50 was 0.298 µM and the TGI was 1.07 µM.
Work on `CCCC/C(=C\C1=C(C)C(=O)C(OC)=C(OC)C1=O)C(=O)O` yielded a GI50 of 6.54 µM and a TGI of over 100 µM.
In the case of `Cc1cc(N/N=C/c2ccccn2)nc2ccccc12`, the GI50 is reported as 0.352 µM and the TGI is reported as 4.98 µM.
`Cn1c(=O)c2c(nc(C(=N)SCC(=O)O)n2C)n(C)c1=O` showed a TGI of 50.9 µM.
Compound `COc1ccc(C(CC(=O)c2ccc3c(c2)OCO3)c2c(O)c3ccccc3oc2=O)cc1OC` (stereo not drawn) has a TGI of over 100 µM.
Work on `COc1ccc(-c2nn(-c3cccc(Cl)c3)cc2-c2cc(-c3ccccc3)[nH]c(=O)c2C#N)cc1` yielded a GI50 of 42.3 µM and a TGI of over 50 µM.
Compound `Nc1cc(Br)c(-c2nnc(CCC(=O)c3nc4ccccc4[nH]3)o2)c(Br)c1` has a GI50 of 4.94 µM and a TGI of over 100 µM.
With `CC(C)(C)[Si](C)(C)OC1[C@@H](CNC(=O)NC(=O)CCl)O[C@@H](n2cnc3c(N)ncnc32)[C@H]1O[Si](C)(C)C(C)(C)C` (stereo partly drawn) the GI50 was 0.53 µM and the TGI was 1.73 µM.
With `COc1ccc(/C(C)=C(\c2ccc(OCCN3CCCCCC3)cc2)c2ccc(OC(=O)C3CCCCC3)cc2)cc1` the GI50 was 0.497 µM and the TGI was 2.54 µM.

What follows are compounds tested on OVCAR-8 ovarian (assay: DTP human tumour cell line panel, 48 h).
In the case of `CN(C)C(=S)SSC(=S)N(C)C`, the GI50 is reported as 15.8 µM and 5.61 µM and 16.4 µM and the TGI is reported as 30.5 µM and 65.8 µM and 36.1 µM.
Compound `CCCCCCCCCCNC(=O)CI` has a GI50 of 1.55 µM and a TGI of 4.52 µM.
With `CCCC/C(=C\C1=C(C)C(=O)C(OC)=C(OC)C1=O)C(=O)O` the GI50 was over 100 µM and the TGI was over 100 µM.
For `Cc1cc(N/N=C/c2ccccn2)nc2ccccc12`, the GI50 was 0.381 µM and the TGI was 16.6 µM.
`Cn1c(=O)c2c(nc(C(=N)SCC(=O)O)n2C)n(C)c1=O` was tested, and the TGI was over 100 µM.
In the case of `COc1ccc(C(CC(=O)c2ccc3c(c2)OCO3)c2c(O)c3ccccc3oc2=O)cc1OC` (stereo not drawn), the TGI is reported as over 100 µM.
Compound `COc1ccc(-c2nn(-c3cccc(Cl)c3)cc2-c2cc(-c3ccccc3)[nH]c(=O)c2C#N)cc1` has a GI50 of 1.67 µM and a TGI of over 50 µM.
For `Nc1cc(Br)c(-c2nnc(CCC(=O)c3nc4ccccc4[nH]3)o2)c(Br)c1`, the GI50 was 21.6 µM and the TGI was over 100 µM.
Work on `CC(C)(C)[Si](C)(C)OC1[C@@H](CNC(=O)NC(=O)CCl)O[C@@H](n2cnc3c(N)ncnc32)[C@H]1O[Si](C)(C)C(C)(C)C` (stereo partly drawn) yielded a GI50 of 0.812 µM and a TGI of 2.85 µM.
`COc1ccc(/C(C)=C(\c2ccc(OCCN3CCCCCC3)cc2)c2ccc(OC(=O)C3CCCCC3)cc2)cc1` showed a GI50 of 2.04 µM and a TGI of 5.9 µM.

These compounds were tested on RPMI-8226 leukemia (assay: DTP human tumour cell line panel, 48 h).
`CN(C)C(=S)SSC(=S)N(C)C` was tested, and the TGI was 49.1 µM and 16.1 µM and 58.9 µM.
Compound `CCCCCCCCCCNC(=O)CI` has a GI50 of 2.21 µM and a TGI of 5.02 µM.
`CCCC/C(=C\C1=C(C)C(=O)C(OC)=C(OC)C1=O)C(=O)O` was tested, and the GI50 was over 100 µM and the TGI was over 100 µM.
For `Cc1cc(N/N=C/c2ccccn2)nc2ccccc12`, the GI50 was 0.41 µM and the TGI was 12.5 µM.
With `Cn1c(=O)c2c(nc(C(=N)SCC(=O)O)n2C)n(C)c1=O` the TGI was over 100 µM.
`COc1ccc(C(CC(=O)c2ccc3c(c2)OCO3)c2c(O)c3ccccc3oc2=O)cc1OC` (stereo not drawn) gave a TGI of over 100 µM.
`COc1ccc(-c2nn(-c3cccc(Cl)c3)cc2-c2cc(-c3ccccc3)[nH]c(=O)c2C#N)cc1` gave a GI50 of 45.6 µM and a TGI of over 50 µM.
`Nc1cc(Br)c(-c2nnc(CCC(=O)c3nc4ccccc4[nH]3)o2)c(Br)c1` was tested, and the GI50 was 4.21 µM and the TGI was over 100 µM.
In the case of `CC(C)(C)[Si](C)(C)OC1[C@@H](CNC(=O)NC(=O)CCl)O[C@@H](n2cnc3c(N)ncnc32)[C@H]1O[Si](C)(C)C(C)(C)C` (stereo partly drawn), the GI50 is reported as 0.805 µM and the TGI is reported as 2.34 µM.
With `COc1ccc(/C(C)=C(\c2ccc(OCCN3CCCCCC3)cc2)c2ccc(OC(=O)C3CCCCC3)cc2)cc1` the GI50 was 0.55 µM and the TGI was 2.23 µM.

Each compound was assayed on SK-MEL-2 melanoma (assay: DTP human tumour cell line panel, 48 h).
In the case of `CN(C)C(=S)SSC(=S)N(C)C`, the GI50 is reported as 34.2 µM and 57 µM and 17 µM and the TGI is reported as > 100 µM and 39.4 µM.
In the case of `CCCCCCCCCCNC(=O)CI`, the GI50 is reported as 1.94 µM and the TGI is reported as 4.02 µM.
`CCCC/C(=C\C1=C(C)C(=O)C(OC)=C(OC)C1=O)C(=O)O` showed a GI50 of over 100 µM and a TGI of over 100 µM.
`Cc1cc(N/N=C/c2ccccn2)nc2ccccc12` gave a GI50 of 4.89 µM and a TGI of 19.6 µM.
`Cn1c(=O)c2c(nc(C(=N)SCC(=O)O)n2C)n(C)c1=O` showed a TGI of over 100 µM.
`COc1ccc(C(CC(=O)c2ccc3c(c2)OCO3)c2c(O)c3ccccc3oc2=O)cc1OC` (stereo not drawn) gave a TGI of over 100 µM.
`COc1ccc(-c2nn(-c3cccc(Cl)c3)cc2-c2cc(-c3ccccc3)[nH]c(=O)c2C#N)cc1` was tested, and the GI50 was 2.13 µM and the TGI was 9.35 µM.
With `Nc1cc(Br)c(-c2nnc(CCC(=O)c3nc4ccccc4[nH]3)o2)c(Br)c1` the GI50 was 4.3 µM and the TGI was over 100 µM.
`CC(C)(C)[Si](C)(C)OC1[C@@H](CNC(=O)NC(=O)CCl)O[C@@H](n2cnc3c(N)ncnc32)[C@H]1O[Si](C)(C)C(C)(C)C` (stereo partly drawn) showed a GI50 of 1.04 µM and a TGI of 2.01 µM.
`COc1ccc(/C(C)=C(\c2ccc(OCCN3CCCCCC3)cc2)c2ccc(OC(=O)C3CCCCC3)cc2)cc1` gave a GI50 of 1.87 µM and a TGI of 4.19 µM.

Source: PubChem BioAssay (NCI)
